{"source": "patent US4914198A", "about": "“Novel substance UCY1003 and process for preparing the same” (priority 1985, dated 1990)", "key": {"[1]": {"system": "male dd mice (number of writhes)", "assay": "Analgesic activity: acetic acid-induced writhing in mice", "assay_type": "in vivo", "details": "for Inhibition Ratio: i.p., 60 min before acetic acid, N = 4", "experimental": "In this experiment, 4 male dd mice wieghing 20±1 g were used as one group for examination of analgesic activity. Sixty minutes after intraperitoneal administration of UCY1003 to each animal, 0.2 ml of a 0.7% acetic acid solution was intraperitoneally administered to the animal. Starting 10 minutes after the administration of acetic acid, the number of writhes occurred in 5 minutes was counted. Inhibition ratio in comparison with control group was calculated by the following equation. ED50 value was calculated in accordance with Litchfield and Wilcoxon. [formula] A: Average number of writhes of control group B: Average number of writhes of test group"}, "[2]": {"system": "Male spontaneously hypertensive rats (SHR) of Okamoto-Aoki strain", "assay": "Hypotensive activity: systolic blood pressure of conscious SHR, tail artery, plethysmographic apparatus", "assay_type": "in vivo, rat (SHR", "details": "for Blood Pressure after (90 min): 90 min after administration; for Blood Pressure after (90 min) / Blood Pressure Difference (before vs 90 min after administration) / Blood Pressure before: N = 3; for Blood Pressure after (90 min) / Blood Pressure before: mean ± S.E.; for Blood Pressure Difference (before vs 90 min after administration): a decrease; for Blood Pressure before: before administration (baseline)", "experimental": "Male spontaneously hypertensive rats (SHR) of Okamoto-Aoki strain (body weight, 310-360 g) were used. Systolic blood pressure of conscious SHR was measured indirectly from the tail artery with a plethysmographic apparatus (Ueda Electric Works, USM-105R). Test compound UCY1003 was suspended in 0.3% sodium carboxymethylcellulose (CMC) solution and was intraperitoneally administered in a volume of 2 ml per kg of body weight."}, "[3]": {"system": "Bacillus subtilis No. 10707", "assay": "Agar dilution method (pH 7), MIC", "assay_type": "cell-based", "text": "(§1) Anti-bacterial activities of UCY1003 against various microorganisms measured by agar dilution method (pH 7) are shown in Table 3."}, "[4]": {"system": "Candida albicans ATCC 10231", "assay": "Agar dilution method (pH 7), MIC", "assay_type": "cell-based", "details": "ATCC10231", "text": "as §1"}, "Escherichia coli ATCC 26": {"system": "Escherichia coli ATCC 26", "assay": "Agar dilution method (pH 7), MIC", "assay_type": "cell-based", "details": "ATCC26", "text": "as §1"}, "[5]": {"system": "Klebsiella pneumoniae ATCC 10031", "assay": "Agar dilution method (pH 7), MIC", "assay_type": "cell-based", "details": "ATCC10031", "text": "as §1"}, "[6]": {"system": "Saccharomyces cerevisiae C-203", "assay": "Agar dilution method (pH 7), MIC", "assay_type": "cell-based", "details": "C203", "text": "as §1"}, "[7]": {"system": "Salmonella typhosa ATCC 9992", "assay": "Agar dilution method (pH 7), MIC", "assay_type": "cell-based", "details": "Salmonella enterica", "text": "as §1"}, "[8]": {"system": "Staphylococcus aureus ATCC 6538P", "assay": "Agar dilution method (pH 7), MIC", "assay_type": "cell-based", "details": "ATCC6538P", "text": "as §1"}, "Acute toxicity in mice": {"assay": "Acute toxicity in mice", "details": "mouse, in vivo, ip; single intraperitoneal administration, 5 ddY mice, 14 days observation, Beherns Karber's method", "experimental": "UCY1003 was intraperitoneally administered once to each animal of the test group consisting of 5 ddY mice. […] The LD50 was determined by Beherns Karber's method to be more than 200 mg/kg."}}}
{"compound": "C=C(CCC1(C)OC2O[C@@H]3C[C@H]1[C@]21CC[C@@H]2[C@@]4(C)CC[C@H](O)C[C@@H]4C[C@@H]4O[C@@]42[C@H]31)C(C)C", "note": "(stereo partly drawn) [UCY1003]", "values": [{"measurement": "Inhibition Ratio", "setting": "[1]; 5 mg/kg", "value": 17, "unit": "%"}, {"measurement": "Inhibition Ratio", "setting": "[1]; 10 mg/kg", "value": 52, "unit": "%"}, {"measurement": "Inhibition Ratio", "setting": "[1]; 25 mg/kg", "value": 52, "unit": "%"}, {"measurement": "Inhibition Ratio", "setting": "[1]; 50 mg/kg", "value": 83, "unit": "%"}, {"measurement": "Inhibition Ratio", "setting": "[1]; 100 mg/kg", "value": 95, "unit": "%"}, {"measurement": "ED50", "setting": "[1]; Mus musculus, ip, calculated in accordance with Litchfield and Wilcoxon", "value": 17, "unit": "mg/kg"}, {"measurement": "Blood Pressure after (90 min)", "setting": "[2]; 50 mg/kg, i.p.", "value": "177 ± 14", "unit": "mmHg"}, {"measurement": "Blood Pressure Difference (before vs 90 min after administration)", "setting": "[2]; 50 mg/kg, i.p.", "value": "18 ± 15", "unit": "mmHg"}, {"measurement": "hypotension", "setting": "[2]; 100 mg/kg, i.p.", "value": "caused hypotension"}, {"measurement": "Blood Pressure after (90 min)", "setting": "[2]; 100 mg/kg, i.p.", "value": "142 ± 9", "unit": "mmHg"}, {"measurement": "Blood Pressure Difference (before vs 90 min after administration)", "setting": "[2]; 100 mg/kg, i.p.", "value": "45 ± 8", "unit": "mmHg"}, {"measurement": "Blood Pressure before", "setting": "[2]; 50 mg/kg i.p. group", "value": "195 ± 8", "unit": "mmHg"}, {"measurement": "Blood Pressure before", "setting": "[2]; 100 mg/kg i.p. group", "value": "187 ± 3", "unit": "mmHg"}, {"measurement": "MIC", "setting": "[3]", "value": "> 100", "unit": "µg/mL"}, {"measurement": "MIC", "setting": "[4]", "value": "> 100", "unit": "µg/mL"}, {"measurement": "MIC", "setting": "Escherichia coli ATCC 26", "value": "> 100", "unit": "µg/mL"}, {"measurement": "MIC", "setting": "[5]", "value": "> 100", "unit": "µg/mL"}, {"measurement": "MIC", "setting": "[6]", "value": 2, "unit": "µg/mL"}, {"measurement": "MIC", "setting": "[7]", "value": "> 100", "unit": "µg/mL"}, {"measurement": "MIC", "setting": "[8]", "value": "> 100", "unit": "µg/mL"}, {"measurement": "LD50 at 336 h", "setting": "Acute toxicity in mice", "value": "> 200", "unit": "mg/kg"}]}
